Results published in patent US20230321086A1, “METHODS AND MATERIALS FOR INHIBITING NICOTINAMIDE PHOSPHORIBOSYLTRANSFERASE ACTIVITY” (Universiy of Pittsburgh - Of the Commonwealth System of …, priority 2020, published 2023).

system: A431 cells; test: Assay for total NADH and NAD+ measurements in cells; assay type: cell-based; conditions: Homo sapiens, A-431, read-out: B: Cellular NAD inhibitory activity, IC50
Summary of the method: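 Cells (2,000/well) treated with compounds overnight, washed with PBS containing 1 mM CaCl2 and MgCl2, lysed with 0.4% DTAB in phosphate buffer pH 8.0. Reaction mix added and fluorescence (Ex/Em 530/585) followed over 8 cycles every 92 seconds; NAD given as % of untreated control.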

IC50 [µM]	SMILES
< 1	O=C(NCCc1cccnc1)Nc1cnc2nc(-c3ccc(F)cc3)c(-c3ccc(F)cc3)nc2c1 [BC20268]
< 1	Fc1ccc(-c2nc3cc(NC(=S)NCCc4cccnc4)cnc3nc2-c2ccc(F)cc2)cc1 [BC20309]
< 1	Nc1ccc(CNC(=O)Nc2cnc3nc(-c4ccc(F)cc4)c(-c4ccc(F)cc4)nc3c2)cn1 [BC20316]
< 1	O=C(NCCc1cccnc1)c1cnc2nc(-c3ccc(F)cc3)c(-c3ccc(F)cc3)nc2c1 [BC20205]
< 1	O=C(Nc1cccnc1)Nc1cnc2nc(-c3ccc(F)cc3)c(-c3ccc(F)cc3)nc2c1 [BC20254]
< 1	O=C(NCCc1cn[nH]c1)Nc1cnc2nc(-c3ccc(F)cc3)c(-c3ccc(F)cc3)nc2c1 [BC20318]
< 1	O=C(NCc1ccc2nc(-c3ccc(F)cc3)c(-c3ccc(F)cc3)nc2c1)Nc1cccnc1 [BC20235]
< 1	O=C(Nc1cnc2nc(-c3ccc(F)cc3)c(-c3ccc(F)cc3)nc2c1)N1Cc2cccnc2C1 [BC20321]
< 1	O=C(NCc1cnc2nc(-c3ccc(F)cc3)c(-c3ccc(F)cc3)nc2c1)Nc1cccnc1 [BC20325]
< 1	O=C(NCCc1cccnc1)Nc1cnc2nc(-c3ccc(Cl)cc3)c(-c3ccc(Cl)cc3)nc2c1 [BC20311]
< 1	Nc1ccc(CNC(=S)Nc2cnc3nc(-c4ccc(F)cc4)c(-c4ccc(F)cc4)nc3c2)cn1 [BC20324]
< 1	O=C(Nc1cccnc1)Nc1ccc2nc(-c3ccc(F)cc3)c(-c3ccc(F)cc3)nc2c1 [BC20224]
< 1	O=C(Nc1cnc2nc(-c3ccc(F)cc3)c(-c3ccc(F)cc3)nc2c1)N1Cc2ccccc2C1 [BC20317]
< 1	O=C(NCCc1cccnc1)Nc1ccc2nc(-c3ccc(F)cc3)c(-c3ccc(F)cc3)nc2c1 [BC20216]
1 to 25	O=C(NCc1cccnc1)NCc1cnc2nc(-c3ccc(F)cc3)c(-c3ccc(F)cc3)nc2c1 [BC20326]
< 1	O=C(NCc1cccnc1)Nc1cnc2nc(-c3ccc(F)cc3)c(-c3ccc(F)cc3)nc2c1 [BC20213]
< 1	O=C(NCCc1c[nH]cn1)Nc1cnc2nc(-c3ccc(F)cc3)c(-c3ccc(F)cc3)nc2c1 [BC20319]
< 1	O=C(Nc1cnc2nc(-c3ccc(F)cc3)c(-c3ccc(F)cc3)nc2c1)N1Cc2ccncc2C1 [BC20334]
< 1	Nc1ccc(CCNC(=O)Nc2cnc3nc(-c4ccc(F)cc4)c(-c4ccc(F)cc4)nc3c2)cn1 [BC20320]
< 1	O=C(NCCc1cncs1)Nc1cnc2nc(-c3ccc(F)cc3)c(-c3ccc(F)cc3)nc2c1 [BC20315]
< 1	O=C(NCCc1cccnn1)Nc1cnc2nc(-c3ccc(F)cc3)c(-c3ccc(F)cc3)nc2c1 [BC20314]

The remaining lines, values behind:

SMILES	IC50 [µM]
O=C(NCc1cnc2nc(-c3ccc(F)cc3)c(-c3ccc(F)cc3)nc2c1)c1cc2ccncc2o1 [BC20328]	< 1
O=C(Nc1ccc2nc(-c3ccc(F)cc3)c(-c3ccc(F)cc3)nc2c1)N1Cc2cccnc2C1 [BC20333]	< 1
O=C(NCc1cccnc1)c1ccc2nc(-c3ccccc3)c(-c3ccccc3)nc2c1 [BC18405]	< 1
Nc1ccc(CNC(=S)Nc2ccc3nc(-c4ccc(F)cc4)c(-c4ccc(F)cc4)nc3c2)cn1 [BC20323]	< 1
O=C(NCc1cnc2nc(-c3ccc(F)cc3)c(-c3ccc(F)cc3)nc2c1)c1cc2ccccc2s1 [BC20329]	1 to 25
O=C(NCc1cnc2nc(-c3ccc(F)cc3)c(-c3ccc(F)cc3)nc2c1)N1Cc2cccnc2C1 [BC20332]	< 1
Nc1ccc(CNC(=O)Nc2ccc3nc(-c4ccc(F)cc4)c(-c4ccc(F)cc4)nc3c2)cn1 [BC20331]	< 1
O=C(Nc1ccc2nc(-c3ccc(F)cc3)c(-c3ccc(F)cc3)nc2c1)N1Cc2ccccc2C1 [BC20330]	< 1
Fc1ccc(-c2nc3ccc(NC(=S)N4Cc5ccccc5C4)cc3nc2-c2ccc(F)cc2)cc1 [BC20322]	< 1
O=C(NCc1cnc2nc(-c3ccc(F)cc3)c(-c3ccc(F)cc3)nc2c1)N1Cc2ccncc2C1 [BC20327]	< 1

target: NAMPT (Homo sapiens, UniProt P43490); test: Assay for in vitro NAMPT activity via NMN assessment; assay type: biochemical; conditions: read-out: A: NAMPT enzyme inhibitory activity, IC50
Sequence (P43490 whole entry, species assumed): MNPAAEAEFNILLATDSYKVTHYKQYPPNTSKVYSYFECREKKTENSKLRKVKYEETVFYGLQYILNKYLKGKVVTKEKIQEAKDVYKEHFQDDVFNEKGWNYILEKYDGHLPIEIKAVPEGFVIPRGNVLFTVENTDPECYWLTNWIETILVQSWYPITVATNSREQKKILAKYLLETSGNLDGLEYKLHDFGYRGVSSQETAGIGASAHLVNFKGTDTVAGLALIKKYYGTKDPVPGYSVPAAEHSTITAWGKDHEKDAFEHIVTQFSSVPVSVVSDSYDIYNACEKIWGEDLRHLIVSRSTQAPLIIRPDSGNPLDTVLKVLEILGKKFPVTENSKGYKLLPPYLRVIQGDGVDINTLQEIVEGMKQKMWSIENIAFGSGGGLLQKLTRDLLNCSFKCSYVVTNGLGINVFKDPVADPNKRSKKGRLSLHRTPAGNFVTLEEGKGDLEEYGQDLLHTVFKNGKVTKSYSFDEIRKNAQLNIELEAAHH
Procedure: The following were added to a well: 20 μL 2× test compound in Basic Buffer (0.02% BSA, 2 mM DTT, 12 mM MgCl2, 50 mM Tris pH7.5); 10 μL 8 μg/mL NAMPT, and 200 μM PRPP working solution (or PRPP working solution to background wells). 10 μL 100 μM NAM working solution was added to start the reaction. The plate was sealed and incubated for 45 minutes at 37° C. After incubation, 10 μL 20% acetophenone in DMSO, 10 μL 2N KOH, and 20 μL 88% formic acid were added. The plate was sealed and incubated for 30 minutes at 37° C. After incubation, fluorescence at Ex/Em 387/441 was read.
In each table header, A: NAMPT enzyme inhibitory activity, IC50 (μM); B: Cellular NAD inhibitory activity, IC50 (μM); and C: change in NAD levels in response to test compound, shown as % of NAD activity in the absence of test compound. […] A percentage of 100 percent would indicate no increase or decrease in NAD levels as compared to that measured for untreated control cells, while a percentage of 50 percent would indicate a decrease in NAD levels of 50 percent as compared to that measured for untreated control cells.

IC50 [µM]	SMILES
< 1	O=C(NCCc1cccnc1)Nc1cnc2nc(-c3ccc(F)cc3)c(-c3ccc(F)cc3)nc2c1 [BC20268]
< 1	Fc1ccc(-c2nc3cc(NC(=S)NCCc4cccnc4)cnc3nc2-c2ccc(F)cc2)cc1 [BC20309]
< 1	Nc1ccc(CNC(=O)Nc2cnc3nc(-c4ccc(F)cc4)c(-c4ccc(F)cc4)nc3c2)cn1 [BC20316]
< 1	O=C(NCCc1cccnc1)c1cnc2nc(-c3ccc(F)cc3)c(-c3ccc(F)cc3)nc2c1 [BC20205]
< 1	O=C(Nc1cccnc1)Nc1cnc2nc(-c3ccc(F)cc3)c(-c3ccc(F)cc3)nc2c1 [BC20254]
< 1	O=C(NCCc1cn[nH]c1)Nc1cnc2nc(-c3ccc(F)cc3)c(-c3ccc(F)cc3)nc2c1 [BC20318]
< 1	O=C(NCc1ccc2nc(-c3ccc(F)cc3)c(-c3ccc(F)cc3)nc2c1)Nc1cccnc1 [BC20235]
< 1	O=C(Nc1cnc2nc(-c3ccc(F)cc3)c(-c3ccc(F)cc3)nc2c1)N1Cc2cccnc2C1 [BC20321]
< 1	O=C(NCc1cnc2nc(-c3ccc(F)cc3)c(-c3ccc(F)cc3)nc2c1)Nc1cccnc1 [BC20325]
< 1	O=C(NCCc1cccnc1)Nc1cnc2nc(-c3ccc(Cl)cc3)c(-c3ccc(Cl)cc3)nc2c1 [BC20311]
< 1	Nc1ccc(CNC(=S)Nc2cnc3nc(-c4ccc(F)cc4)c(-c4ccc(F)cc4)nc3c2)cn1 [BC20324]
< 1	O=C(Nc1cccnc1)Nc1ccc2nc(-c3ccc(F)cc3)c(-c3ccc(F)cc3)nc2c1 [BC20224]
< 1	O=C(Nc1cnc2nc(-c3ccc(F)cc3)c(-c3ccc(F)cc3)nc2c1)N1Cc2ccccc2C1 [BC20317]
< 1	O=C(NCCc1cccnc1)Nc1ccc2nc(-c3ccc(F)cc3)c(-c3ccc(F)cc3)nc2c1 [BC20216]
1 to 25	O=C(NCc1cccnc1)NCc1cnc2nc(-c3ccc(F)cc3)c(-c3ccc(F)cc3)nc2c1 [BC20326]
< 1	O=C(NCc1cccnc1)Nc1cnc2nc(-c3ccc(F)cc3)c(-c3ccc(F)cc3)nc2c1 [BC20213]
< 1	O=C(NCCc1c[nH]cn1)Nc1cnc2nc(-c3ccc(F)cc3)c(-c3ccc(F)cc3)nc2c1 [BC20319]
< 1	O=C(Nc1cnc2nc(-c3ccc(F)cc3)c(-c3ccc(F)cc3)nc2c1)N1Cc2ccncc2C1 [BC20334]
< 1	Nc1ccc(CCNC(=O)Nc2cnc3nc(-c4ccc(F)cc4)c(-c4ccc(F)cc4)nc3c2)cn1 [BC20320]
< 1	O=C(NCCc1cncs1)Nc1cnc2nc(-c3ccc(F)cc3)c(-c3ccc(F)cc3)nc2c1 [BC20315]
< 1	O=C(NCCc1cccnn1)Nc1cnc2nc(-c3ccc(F)cc3)c(-c3ccc(F)cc3)nc2c1 [BC20314]
≥ 25	COCCNC(=O)Nc1cnc2nc(-c3ccc(F)cc3)c(-c3ccc(F)cc3)nc2c1 [BC20298]

Further lines, the compound ahead of its results:

SMILES	IC50 [µM]
O=C(NCc1cnc2nc(-c3ccc(F)cc3)c(-c3ccc(F)cc3)nc2c1)c1cc2ccncc2o1 [BC20328]	< 1
O=C(Nc1ccc2nc(-c3ccc(F)cc3)c(-c3ccc(F)cc3)nc2c1)N1Cc2cccnc2C1 [BC20333]	< 1
O=C(NCc1cccnc1)c1ccc2nc(-c3ccccc3)c(-c3ccccc3)nc2c1 [BC18405]	< 1
Nc1ccc(CNC(=S)Nc2ccc3nc(-c4ccc(F)cc4)c(-c4ccc(F)cc4)nc3c2)cn1 [BC20323]	< 1
O=C(NCc1cnc2nc(-c3ccc(F)cc3)c(-c3ccc(F)cc3)nc2c1)c1cc2ccccc2s1 [BC20329]	≥ 25
O=C(NCc1cnc2nc(-c3ccc(F)cc3)c(-c3ccc(F)cc3)nc2c1)N1Cc2cccnc2C1 [BC20332]	< 1
O=C(NCc1cccnc1)NCc1ccc2nc(-c3ccc(F)cc3)c(-c3ccc(F)cc3)nc2c1 [BC20236]	1 to 25
Nc1ccc(CNC(=O)Nc2ccc3nc(-c4ccc(F)cc4)c(-c4ccc(F)cc4)nc3c2)cn1 [BC20331]	< 1
O=C1N(Cc2cccnc2)CCCN1c1ccc2nc(-c3ccc(F)cc3)c(-c3ccc(F)cc3)nc2c1 [BC20219]	≥ 25
C#CCNC(=O)c1ccc2nc(-c3cccc(NC(=O)COC)c3)c(-c3cccc(NC(=O)COC)c3)nc2c1 [BC20228]	≥ 25
O=C(Nc1ccc2nc(-c3ccc(F)cc3)c(-c3ccc(F)cc3)nc2c1)N1Cc2ccccc2C1 [BC20330]	< 1
C#CCNC(=O)c1ccc2nc(-c3ccc(F)cc3)c(-c3cccc(NC(=O)CN(C)C)c3)nc2c1 [BC20214]	≥ 25
CCCC(=O)N1CCC[C@H](CNC(=O)c2ccc3nc(-c4ccc(F)cc4)c(-c4ccc(F)cc4)nc3c2)C1 [BC20283]	≥ 25
CCCS(=O)(=O)N1CCCC(NC(=O)Nc2cnc3nc(-c4ccc(F)cc4)c(-c4ccc(F)cc4)nc3c2)C1 (stereo not shown) [BC20293]	≥ 25
Fc1ccc(-c2nc3ccc(NC(=S)N4Cc5ccccc5C4)cc3nc2-c2ccc(F)cc2)cc1 [BC20322]	< 1
O=C(NCc1ccc2nc(-c3ccc(F)cc3)c(-c3ccc(F)cc3)nc2c1)c1cccnc1 [BC20267]	1 to 25
C#CCNC(=O)c1ccc2nc(-c3cccc(NC(C)=O)c3)c(-c3cccc(NC(C)=O)c3)nc2c1 [BC20227]	≥ 25
CC(=O)N1CCCC(NC(=O)Nc2ccc3nc(-c4ccc(F)cc4)c(-c4ccc(F)cc4)nc3c2)C1 (stereo not shown) [BC20217]	1 to 25
O=C1N(Cc2cccnc2)CCN1c1ccc2nc(-c3ccc(F)cc3)c(-c3ccc(F)cc3)nc2c1 [BC20277]	1 to 25
CS(=O)(=O)N1CCCC(CNC(=O)Nc2ccc3nc(-c4ccc(F)cc4)c(-c4ccc(F)cc4)nc3c2)C1 (stereo not shown) [BC20300]	1 to 25
O=C(NCc1cnc2nc(-c3ccc(F)cc3)c(-c3ccc(F)cc3)nc2c1)N1Cc2ccncc2C1 [BC20327]	< 1
C#CCNC(=O)c1ccc2nc(-c3ccc(F)cc3)c(-c3cccc(CN(C)C)c3)nc2c1 [BC20233]	≥ 25
CN(C)Cc1cccc(-c2nc3ccc(C(=O)N4CCN(C)CC4)cc3nc2-c2ccc(F)cc2)c1 [BC20307]	≥ 25
